The source of these data is US10226451B2, “Substituted bicyclic compounds as bromodomain inhibitors” (ZENITH EPIGENETICS LTD, priority 2013, dated 2019).

Assay [1] has as its target T1, Brd4 bromodomain 1 (BRD4(1)) (Homo sapiens, UniProt O60885).
T1 construct: made in house; host or cells: E. coli BL21(DE3)
The assay can be described thus: Inhibition of tetra-acetylated histone H4 binding to Brd4 bromodomain 1 (HTRF/FRET). The note with it: tetra-acetylated histone H4 peptide, His-tagged bromodomain 200 nM, 2 h. Put shortly:
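Inhibition was read as a drop in 665 nm relative to 620 nm HTRF signal after 2 h at room temperature, with IC50 from dose-response curves in duplicate wells. Reactions held 200 nM E. coli-expressed His-tagged bromodomain and 25-50 nM biotinylated tetra-acetylated histone H4 peptide. Buffer was 30 mM HEPES pH 7.4 with KF, CHAPS, BSA and 0.2% DMSO.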

Assay [2] relates to c-myc in Human AML MV4-11 cells. The assay can be described thus: Inhibition of c-MYC expression (mRNA, real-time PCR) in MV4-11 cells. The note with it: 3 h, mRNA by real-time PCR. It is filed as cell-based. The method, boiled down: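 Cells at 2.5×10^4 per well in IMDM/10% FBS were treated with rising compound concentrations or 0.1% DMSO for 3 h at 37° C., in triplicate. cMYC mRNA was measured by one-step TaqMan qRT-PCR, normalised to cyclophilin, and expressed as fold expression relative to control.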

Assay [3] relates to Human AML MV-4-11 cells. The assay can be described thus: Inhibition of cell proliferation in MV4-11 cells (CellTiter Aqueous One). It is filed as cell-based. The note with it: 72 h. The method, boiled down:
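MV4-11 cells at 5×10^4/well in IMDM with 10% FBS were exposed to increasing compound concentrations or 0.1% DMSO, in triplicate, for 72 h at 37 °C. A further 3-4 h with CellTiter Aqueous One reagent followed. A490, blank-corrected and expressed relative to DMSO, gave IC50.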

In assay [4] the test system is hIL-6 mRNA in U937 cells. The assay can be described thus: Inhibition of hIL-6 mRNA transcription in LPS-stimulated U937 cells. It is filed as cell-based. The note with it: Homo sapiens, U-937, PMA-differentiated U937 cells, LPS 1 ug/mL, 3 h, read-out: IL-6 activity. Put shortly:
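U937 cells were differentiated to macrophages with 60 ng/mL PMA for 3 days, pretreated 1 h with compound in 0.1% DMSO, then stimulated with 1 ug/mL E. coli LPS for 3 h at 37° C. hIL-6 mRNA was quantified by one-step TaqMan RT-qPCR, normalized to cyclophilin, as fold expression versus control.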

In assay [5] the test system is hIL-17 mRNA in human peripheral blood mononuclear cells. The assay can be described thus: Inhibition of hIL-17 mRNA transcription in OKT3-stimulated PBMC. The class given is cell-based. As to conditions: OKT3 antibody, 6 h, read-out: IL-17 activity. The protocol: In this example, hIL-17 mRNA in human peripheral blood mononuclear cells were quantitated to measure the transcriptional inhibition of hIL-17 when treated with a compound of the present disclosure.
Human peripheral blood mononuclear cells were plated (2.0×10^5 cells per well) in a 96-well plate in 45 μL OpTimizer T Cell expansion media (Life Technologies) containing 20 ng/ml IL-2 and penicillin/streptomycin. The cells were treated with increasing concentrations of the test compound or DMSO (0.1%), and incubated at 37° C., 5% CO2 for 1 h before addition of 10× stock OKT3 antibody at 10 ug/ml in media. Triplicate wells were used for each concentration. Cells were incubated at 37° C., 5% CO2 for 6 h before the cells were harvested. At time of harvest, cells were pelleted by centrifugation at 800 rpm for 5 min. Cells were harvested using the mRNA Catcher PLUS kit according to manufacturer's instructions. The eluted mRNA was then used in a one-step quantitative real-time PCR reaction, using components of the RNA UltraSense™ One-Step Kit (Life Technologies) together with Applied Biosystems TaqMan® primer-probes for hIL-17 and Cyclophilin. Real-time PCR plates were run on a ViiA™7 real time PCR machine (Applied Biosystems), data was analyzed, normalizing the Ct values for hIL-17 to an internal control, prior to determining the fold induction of each unknown sample, relative to the control.

Assay [6] concerns hApoA-I mRNA in Huh7 cells. The assay can be described thus: Up-regulation of hApoA-1 mRNA transcription in Huh7 cells. As to conditions: EC170, Huh7 cells, 48 h. The class given is cell-based, Human. The protocol:
In this example, hApoA-I mRNA in tissue culture cells was quantitated to measure the transcriptional up-regulation of hApoA-I when treated with a compound of the present disclosure.
Huh7 cells (2.5×10^5 per well) were plated in a 96-well plate using 100 μL DMEM per well, (Gibco DMEM supplemented with penicillin/streptomycin and 10% FBS), 72 h before the addition of the compound. The cells are treated with increasing concentrations of the compound or DMSO (0.1%), and incubated at 37° C., 5% CO2 for 48 h. Spent media was removed from the Huh-7 cells and placed on ice for immediate use with the “LDH cytotoxicity assay Kit II” from Abcam. The cells remaining in the plate were rinsed with 100 μL PBS. Cells were harvested using the mRNA Catcher PLUS kit according to manufacturer's instructions. The eluted mRNA was then used in a one-step quantitative real-time PCR reaction, using components of the RNA UltraSense™ One-Step Kit (Life Technologies) together with Applied Biosystems TaqMan® primer-probes for hApoA-I and Cyclophilin. Real-time PCR plates were run on a ViiA™7 real time PCR machine (Applied Biosystems), data was analyzed, normalizing the Ct values for hApoA-1 to an internal control, prior to determining the fold induction of each unknown sample, relative to the control.

Molecules are shown by their SMILES. Bounds are passed on as bounds.

In the case of `Cc1noc(C)c1-c1cc(-c2c(C)noc2C)c2[nH]c(=O)[nH]c2c1` [Example Compound 1, 4,6-bis(3,5-dimethylisoxazol-4-yl)-1H-benzo[d]imidazol-2(3H)-one], the IC50 in assay [1] is at most 300 nM; in assay [2], 300 to 3000 nM; in assay [3] it was at most 300 nM; in assay [4], at most 300 nM; in assay [5] it was at most 300 nM. Also, the ApoA-1 activity result in assay [6] is on record as “+++ (EC170 value less than or equal to 0.3 μM were deemed to be highly active (+++))”.
Consider `Cc1ncccc1-c1cc(-c2c(C)noc2C)cc2[nH]c(=O)n(C)c12` [Example Compound 4, 5-(3,5-dimethylisoxazol-4-yl)-1-methyl-7-(2-methylpyridin-3-yl)-1H-benzo[d]imidazol-2(3H)-one], for which the IC50 was at most 300 nM in assay [1]; at most 300 nM in assay [2]; 300 to 3000 nM in assay [3]; at most 300 nM in assay [4]; 300 to 3000 nM in assay [5]. The ApoA-1 activity result in assay [6] is listed as “+++ (EC170 value less than or equal to 0.3 μM were deemed to be highly active (+++))”.
Consider `Cc1nn(C)cc1-c1cc(-c2c(C)noc2C)cc2[nH]c(=O)n(C)c12` [Example Compound 7, 7-(1,3-dimethyl-1H-pyrazol-4-yl)-5-(3,5-dimethylisoxazol-4-yl)-1-methyl-1H-benzo[d]imidazol-2(3H)-one], for which the IC50 in assay [1] was at most 300 nM; in assay [2] it was at most 300 nM; in assay [3] it was at most 300 nM; in assay [4], at most 300 nM; in assay [5] it was 300 to 3000 nM. Also, the ApoA-1 activity result in assay [6] is on record as “+++ (EC170 value less than or equal to 0.3 μM were deemed to be highly active (+++))”.
For the compound `COc1ncccc1-c1cc(-c2c(C)noc2C)cc2[nH]c(=O)n(C)c12` [Example Compound 13, 5-(3,5-dimethylisoxazol-4-yl)-7-(2-methoxypyridin-3-yl)-1-methyl-1H-benzo[d]imidazol-2(3H)-one], the IC50 was at most 300 nM in assay [1]; at most 300 nM in assay [2]; 300 to 3000 nM in assay [3]; 300 to 3000 nM in assay [4]; 300 to 3000 nM in assay [5]. Moreover, in assay [6], the ApoA-1 activity result was “+++ (EC170 value less than or equal to 0.3 μM were deemed to be highly active (+++))”.
